PMC3542833 (Journal of the American Chemical Society, 2012)

Tests used:
tubulin [1] = test: tubulin assembly assay; assay type: biochemical; conditions: read-out: Inhibition of Tubulin Assembly IC50±SD; enantiopure analogues
tubulin [2] = test: inhibition of colchicine binding; conditions: 5 μM inhibitor; enantiopure analogues
NCI-60 = test: NCI 60-cell screen; assay type: cell-based; conditions: read-out: NCI-60 Mean GI50; mean over NCI-60 panel; enantiopure analogues
tubulin [3] = conditions: previous finding; ref 5a; cited from earlier work

Substance: (+)-chamaecypanone C [(+)-2]
- IC50 (tubulin [1]): 2200 ± 300 nM
- % Inhibition of Colchicine Binding ± SD (tubulin [2]): 30±4.0%
- GI50 (NCI-60): 280 nM
- activity of chamaecypanone C enantiomers (in words) (tubulin [3]): active
